What is called inhibition is the change of the read-out against control, counted positive when it falls. Read a low inhibition as a response near the control.

The target in experiment [1] is T1, recombinant human Caspase-1 (Homo sapiens, UniProt P29466).
T1 construct: purchased Enzo life science
T1 sequence (P29466 120-297 limits assumed): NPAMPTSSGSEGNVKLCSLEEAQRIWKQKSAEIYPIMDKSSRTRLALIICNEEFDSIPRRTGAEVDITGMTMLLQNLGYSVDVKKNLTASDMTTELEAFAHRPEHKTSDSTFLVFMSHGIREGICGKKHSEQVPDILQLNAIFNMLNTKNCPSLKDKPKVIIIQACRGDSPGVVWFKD
T1 sequence (P29466 317-404 limits assumed): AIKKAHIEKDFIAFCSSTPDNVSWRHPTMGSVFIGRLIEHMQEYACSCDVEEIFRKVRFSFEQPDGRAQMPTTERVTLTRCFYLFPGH
In words: Caspase-1 inhibitory activity, fluorescent substrate Ac-YVAD-AFC. The class given is biochemical. Put shortly: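 Inactivation kinetics with 1 unit enzyme and 50 μM Ac-YVAD-AFC in 50 mM HEPES pH 8.0, 50 mM KCl, 200 mM NaCl, 10 mM DTT, 0.1% CHAPS, at various compound concentrations. Rate followed over time at Ex/Em 400/505 nm. kobs/[I] binned: A ≥20, B 10–<20, C 1–<10, D <1.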

A further experiment concerns Jurkat cells. Description: Apoptosis inhibition activity in human T-lymphocyte cells Jurkat (anti-FAS antibody, intracellular ATP). It is filed as cell-based. The note with it: compound 50 nM, 1 μg/ml anti-FAS antibody 24 h, ATP luminescence. The method, then: To evaluate the effect of the compound of the present invention on apoptosis, Jurkat (ATCC) cells were treated with anti-FAS antibody CH-11 (Merck) to induce apoptosis via the Fas (CD95) receptor, which was assessed by the amount of intracellular ATP.
Jurkat cells were cultured in RPMI 1640 growth medium comprising 10% FBS and antibiotics (100 U/ml Penicillin, 0.1 mg/ml Streptomycin) under 37° C., 5% CO2 conditions. Cultured cells were seeded in growth medium to a concentration of 8×10^4 cells/well in 96-well plates (SPL), pretreated with compound at a concentration of 50 nM for 1 hour, and then treated with 1 μg/ml anti-FAS antibody for 24 hours in an incubator. After 24 h, an ATP lite Luminescence assay kit (PerkinElmer) was used to measure ATP and luminescence was measured at 580 nm using a CLARIOstar Plus spectrometer. If the inhibitory activity is 30% or more, it is denoted as a′, if it is 20% or more but less than 30%, it is denoted as b′, if it is 10% or more but less than 20%, it is denoted as c′, and if it is less than 10%, it is denoted as d′.

Experiment [2] deals with Secreted IL-1β in THP-1 cells. Description: Interleukin-1β inhibitory activity in human monocytic cells THP-1 (ELISA). To be noted: compound 100 nM, PMA-differentiated THP-1, LPS 10 μg/ml then 5 mM ATP, 24 h. The class given is cell-based. In short, it runs like this:
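THP-1 cells were differentiated with 1 μM PMA for 24 h, primed with 10 μg/ml LPS in serum-free medium for 24 h, then given compound at 100 nM for 1 h before 5 mM ATP for 24 h. Secreted IL-1β was measured by ELISA, and inhibition was binned a ≥50%, b 30–<50%, c 10–<30%, d <10%.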

[3] abbreviates: pH 8, read-out: kobs/[I] Caspase-1.
Setting [4] is: pH 8, 1 unit recombinant human Caspase-1, 50 μM Ac-YVAD-AFC, read-out: kobs/[I] Caspase-1.

Where two headings read alike, the source gives them in different places.

For `O=C(O)CC(NC(=O)CN1Cc2ccc(-c3csc4ccccc34)cc2C1=O)C(=O)CF` (stereo not drawn) [Compound 40, 3-(2-(6-(benzo[b]thiophen-3-yl)-1-oxoisoindolin-2-yl)acetamido)-5-fluoro-4-oxopentanoic acid], in experiment [1] (setting [3]), the kinact/KI was in the range of 0.0167 to 0.167 M⁻¹ s⁻¹. The inhibition at 0.05 µM in the experiment with Jurkat cells was under 10%. For the same compound, the inhibition at 0.1 µM in experiment [2] was under 10%.

For `CCC(C(=O)NC(CC(=O)O)C(=O)CF)N1Cc2ccc(-c3ccc4ncccc4c3)cc2C1=O` (stereo not drawn) [Compound 30, 5-fluoro-4-oxo-3-(2-(1-oxo-6-(quinolin-6-yl)isoindolin-2-yl)butanamido)pentanoic acid], the kinact/KI in experiment [1] (setting [4]) lay in the range of 0.167 to 0.333 M⁻¹ s⁻¹. In the experiment on Jurkat cells, this compound yielded an inhibition at 0.05 µM of under 10%. Further, in experiment [2], the inhibition at 0.1 µM is under 10%.

On to `CC[C@@H](C(=O)N[C@@H](CC(=O)O)C(=O)COc1c(F)c(F)cc(F)c1F)N1Cc2ccc(-c3ccc4c(c3)OCCO4)cc2C1=O` [Compound 51, (S)-3-((S)-2-(6-(2,3-di hydrobenzo[b][1,4]dioxin-6-yl)-1-oxoisoindolin-2-yl)butanamido)-4-oxo-5-(2,3,5,6-tetrafluorophenoxy)pentanoic], for which, in experiment [1] (setting [4]), the kinact/KI fell in the range of 0.167 to 0.333 M⁻¹ s⁻¹. This compound registered an inhibition at 0.05 µM in the experiment on Jurkat cells of 20 to 30%. Moreover, the inhibition at 0.1 µM in experiment [2] was 30 to 50%.

With `O=C(O)CC(NC(=O)CN1Cc2ccc(-c3ccc4occc4c3)cc2C1=O)C(=O)CF` (stereo not drawn) [Compound 41, 3-(2-(6-(benzofuran-5-yl)-1-oxoisoindolin-2-yl)acetamido)-5-fluoro-4-oxopentanoic acid], the kinact/KI in experiment [1] (setting [3]) lay in the range of 0.0167 to 0.167 M⁻¹ s⁻¹. Further, the inhibition at 0.05 µM in the experiment on Jurkat cells was under 10%. Further, in experiment [2], the inhibition at 0.1 µM is under 10%.

Take `CCC(C(=O)NC(CC(=O)O)C(=O)CF)N1Cc2ccc(-c3cccc4ccccc34)cc2C1=O` (stereo not drawn) [Compound 2, 5-fluoro-3-(2-(6-(naphthalen-1-yl)-1-oxoisoindolin-2-yl)butanamido)-4-oxopentanoic acid]: the kinact/KI in experiment [1] (setting [4]) is 0.0167 to 0.167 M⁻¹ s⁻¹. Moreover, the inhibition at 0.05 µM with Jurkat cells was in the range of 10 to 20%. The inhibition at 0.1 µM in experiment [2] fell in the range of 30 to 50%.

With `CCC(C(=O)NC(CC(=O)O)C(=O)CF)N1Cc2ccc(-c3cnc4ccccc4c3)cc2C1=O` (stereo not drawn) [Compound 37, 5-fluoro-4-oxo-3-(2-(1-oxo-6-(quinolin-3-yl)isoindolin-2-yl)butanamido)pentanoic acid], the kinact/KI in experiment [1] (setting [3]) lay within 0.0167 to 0.167 M⁻¹ s⁻¹. The inhibition at 0.05 µM in the experiment with Jurkat cells was under 10%. Moreover, in experiment [2], the inhibition at 0.1 µM lay in the range of 10 to 30%.

`CCC(C(=O)NC(CC(=O)O)C(=O)CF)N1Cc2ccc(Br)cc2C1=O` (stereo not drawn) [Compound 9, 3-(2-(6-bromo-1-oxoisoindolin-2-yl)butanamido)-5-fluoro-4-oxopentanoic acid]: the kinact/KI in experiment [1] (setting [4]) fell in the range of 0.0167 to 0.167 M⁻¹ s⁻¹. In addition, the inhibition at 0.05 µM in the experiment on Jurkat cells is at least 30%. Also, the inhibition at 0.1 µM in experiment [2] is 30 to 50%.

In the case of `CCC(C(=O)NC(CC(=O)O)C(=O)CF)N1Cc2ccc(N3CCCC3)cc2C1=O` (stereo not drawn) [Compound 3, 5-fluoro-4-oxo-3-(2-(1-oxo-6-(pyrrolidin-1-yl)isoindolin-2-yl)butanamido)pentanoic acid], the kinact/KI in experiment [1] (setting [4]) is 0.0167 to 0.167 M⁻¹ s⁻¹. This compound also returned an inhibition at 0.05 µM with Jurkat cells of 20 to 30%. Also, the inhibition at 0.1 µM in experiment [2] is 30 to 50%.

Turning to `CC(C)[C@@H](C(=O)NC(CC(=O)O)C(=O)CF)N1Cc2ccc(-c3ccc4c(c3)OCCO4)cc2C1=O` (stereo partly drawn) [Compound 42, 3-((S)-2-(6-(2,3-dihydrobenzo[b][1,4]dioxin-6-yl)-1-oxoisoindolin-2-yl)-3-methylbutanamido)-5-fluoro-4-oxopentanoic acid], in experiment [1] (setting [4]), the kinact/KI was 0.0167 to 0.167 M⁻¹ s⁻¹. The compound also registered an inhibition at 0.05 µM in the experiment on Jurkat cells of at least 30%. Moreover, in experiment [2], the inhibition at 0.1 µM fell in the range of 30 to 50%.

The values are drawn from US20250109135A1, “NOVEL ISOINDOLINONE DERIVATIVE COMPOUNDS AS CASPASE INHIBITORS” (INNOVO THERAPEUTICS INC., priority 2022, published 2025).
